As usually defined, the half-life is the time needed for the level to fall by half in the phase considered. Higher therefore signals slow decline.

The test system of data set [1] is human prostate PC3 xenograft tumors. Nature of the data set: Antitumor activity in subcutaneous human prostate PC3 xenograft (tumor size over time). The format is in vivo, immunodeficient mice. How it is done: The dose of paclitaxel was 15 mg/kg and was given twice weekly for three weeks. […] Example 1 further expounds on FIG. 1.
The relevant tumor model used was human prostate PC3 xenograft implanted subcutaneously in immunodeficient mice. […] The dose of paclitaxel was 15 mg/kg and was given twice weekly for three weeks.
On the technique in general: In xenograft studies the graft and the host belong to different species.

Data set [2] shares this test system. Kind of data set: Non-apoptotic and apoptotic cell counts in histologic sections of residual PC3 tumors. Type of data set: in vivo, immunodeficient mice. The following applies: mean ± SD. How it is done:
Because a post-treatment residual tumor consisted of apoptotic and non-apoptotic cells, the effects of different treatments on the fractions of non-apoptotic (and therefore not committed to death) and apoptotic (dead or committed) cells were evaluated. Briefly, residual tumors were removed from animals after termination of treatment, and histologic tumor sections were prepared. Tumor sections were examined microscopically under 400× magnification. For each tumor, at least 4 sections were evaluated. Apoptotic cells were identified by their characteristic morphologies, i.e., presence of apoptotic bodies, condensed nuclei and fragmented nuclei.

The nature of data set [3]: clinical. Type of data set: in vivo, human. An excerpt:
This method was then verified prospectively in three additional patients (see Example IV).
However, the CL was lower in females compared to males.

Data set [4] in a line: in vivo. The note with it: mouse.
Data set [5] can be described thus: Phase I trial, toxicity of low dose suramin with paclitaxel and carboplatin. Type of data set: in vivo, human. From the text:
Fifteen patients, with metastases to pleura, pericardium, adrenals, lymph nodes, liver, bone, and/or brain, were enrolled in the phase I trial. This group includes 4 stage IIIb and 11 stage IV patients. […] All patients were evaluable for pharmacokinetics and toxicity. […] Accordingly, it was not necessary to administer replacement steroid therapy to patients who received low dose suramin. This is contrary to the case where replacement steroid therapy was routinely given to patients who received high dose suramin (Dorr and Von Hoff).

A short description of data set [6]: Prospective verification of the PBPK-based dosing method, plasma concentrations. Type of data set: in vivo, human. The note with it: for concentration at 48 h: human, plasma, intravenous. How it is done: Three additional non-small cell lung cancer patients were treated using the dose calculated by the PBPK-based method.
The conditions of data set [7]: Literature, cited from earlier work.
In data set [8] the test system is cell cycle. The following applies: constant concentrations of above 50 μM maintained for at least one or two days; cited from earlier work.
Data set [9] concerns acidic and basic fibroblast growth factors (aFGF and bFGF). The following applies: tumor cells, aFGF and bFGF induced resistance; cited from earlier work.
The nature of data set [10]: Population-based pharmacokinetic (PBPK) analysis of low dose suramin, NONMEM.
Excerpt: The first step is to define the appropriate error model for the pharmacokinetic parameters of interest. […] Only the covariates whose elimination results in significant deterioration in model performance are included in the final model (referred to as Population Model).
The PBPK for a one-compartment model depicting plasma concentrations as a function of clearance (CL) and volume of distribution (V) is as follows: • where Cij is the predicted plasma concentration at a particular time time i for a patient j.
Error functions were used to describe the random deviations between model-predicted and observed data for individual pharmacokinetic parameters. Because the objective was to identify the dose, which can be calculated based on CL and V, the analysis focused on these two parameters. […] CLj=CL^typ*(1+ηCL) Eq. 2 Vj=V^typ*(1+ηV) Eq. 3 where ηCL and ηV are random values normally distributed around a mean of zero with a variance of ω^2.
Multiple plasma concentration-time data points were used in PBPK analysis. These time points were 18, 24, 48 and 72 hours after the first treatment, 72 hours and immediately prior to next treatment, and 48 and 72 hours after second and subsequent treatments. The relationship between observed plasma concentrations and PBPK-predicted values (residual variability) is depicted by Equation 4. Yij=Cij*(1+ε1ij) Eq. 4 where Yij and Cij are the observed and predicted concentrations of the j^th individual at the i^th sampling time. ε1ij is the residual errors with a mean of zero and a variance of σ^2. The above equations used an error function in the form of (1+error), which represents the proportional error model where the coefficient of variation is constant and independent of the size of the fixed effect parameter. […] Model Building: Identification of Significant Covariates
The contribution of ten covariates to the inter-individual variability in CL and V was studied. These covariates were age, gender, weight, ideal body weight, height, body surface area (BSA), creatinine concentration, creatinine clearance (CrCL), and serum albumin concentration. Linear regression analysis was used to examine the relationships between covariates and pharmacokinetic parameters in individual patients.
To determine whether a covariate should be incorporated into the model, the log likelihood ratio test was used and the chi-square χ^2 values were calculated by taking the difference in the objective function values of the models, obtained with or without adding the candidate covariate.
CL^typ=(θ1*BSA+θ2*CrCL+θ3)*(1−θ4) Eq. 7 V^typ=θ5*BSA^2+θ6 Eq. 8 […]
To obtain estimates for k^typ, the k values for individual patients were calculated by substituting their corresponding BSA values into Equations 13 and 14.
Setting [11] is: paclitaxel alone 15 mg/kg twice weekly for three weeks.
[12] abbreviates: high dose suramin regimen 200 mg/kg then 5 x 130 mg/kg over three weeks, combination: plus paclitaxel 15 mg/kg.
Where [13] appears, read: low dose suramin regimen 10 mg/kg twice weekly for three weeks, combination: plus paclitaxel 15 mg/kg.
Setting [14] is: Patient 1, cycle 1, BSA 1.45, dose 263 mg.
Where [15] appears, read: Patient 1, cycles 3 to 6, dose 151-156 mg.
The mark [16] stands for this setting: Patient 2, cycle 1, BSA 1.67, dose 210 mg.
The mark [17] stands for this setting: Patient 2, cycles 2 to 6, dose 227-257 mg.
[18] abbreviates: Patient 3, cycle 1, BSA 1.83, dose 230 mg.
The mark [19] stands for this setting: high dose suramin >2,000 mg per m^2.
[20] abbreviates: Population Model, first 12 patients.

Each structure is given as a SMILES string. Marks after values point to notes of the source that are not given here.

As for `CC(=O)O[C@H]1C(=O)[C@@]2(C)[C@H]([C@H](OC(=O)c3ccccc3)[C@]3(O)C[C@H](OC(=O)[C@H](O)[C@@H](NC(=O)c4ccccc4)c4ccccc4)C(C)=C1C3(C)C)[C@]1(OC(C)=O)CO[C@@H]1C[C@@H]2O` [Paclitaxel, paclitaxel], the “antitumor effect (tumor growth)” value in data set [1] (paclitaxel alone 15 mg/kg twice weekly for three weeks, p<0.05 vs control) was “suppressed tumor growth”. Further, in data set [2] (setting [11]), the “Number of apoptotic cells in a 400x field” value is reported as 30 ± 17 and the “Number of non-apoptotic cells in a 400x field” value turned out to be 14 ± 10. In [3] (human, in vivo), the “areas-under-plasma concentration-time curves attained in the first 48 hours after drug administration” value is over 92%. In data set [4], this molecule returned a concentration at 5 min of about 7000 ng/mL, a concentration at 5 h of 200 ng/mL and a concentration at 6 h of under 100 ng/mL.
As to `Cc1ccc(C(=O)Nc2ccc(S(=O)(=O)O)c3cc(S(=O)(=O)O)cc(S(=O)(=O)O)c23)cc1NC(=O)c1cccc(NC(=O)Nc2cccc(C(=O)Nc3cc(C(=O)Nc4ccc(S(=O)(=O)O)c5cc(S(=O)(=O)O)cc(S(=O)(=O)O)c45)ccc3C)c2)c1` [suramin], the “antitumor effect (tumor growth)” value in data set [1] (high dose suramin regimen: loading dose 200 mg/kg, then 5 doses of 130 mg/kg over three weeks, combination: plus paclitaxel 15 mg/kg twice weekly for three weeks) was “slower tumor growth”. Further, the “tumor size, % of the initial tumor size” value in data set [1] (low dose suramin regimen: 10 mg/kg twice weekly for three weeks, combination: plus paclitaxel 15 mg/kg twice weekly for three weeks) was “about 800%”. Besides, the “Number of apoptotic cells in a 400x field” value in data set [2] (setting [12]) is on record as 22 ± 9; in data set [2] (setting [13]), 21 ± 16. For the same molecule, the “Number of non-apoptotic cells in a 400x field” value stood at 19 ± 9 in data set [2] (setting [12]) and 62 ± 44 in data set [2] (setting [13]). In addition, the dose-limiting toxicity entry in data set [5] (low dose suramin with paclitaxel 200 mg/m^2 and carboplatin AUC 6 every three weeks, fifteen patients) is “No dose-limiting toxicity”. Moreover, the adrenal insufficiency entry in [5] (patients receiving the low dose suramin treatment) is on record as “no adrenal insufficiency”. The half-life is 4.4 h in data set [3] (both sexes, human, in vivo, Alpha half-life); 264 h in data set [3] (both sexes, human, in vivo, Beta half-life); 4.6 ± 2 h in [3] (female, human, in vivo, Alpha half-life); 336 h in data set [3] (female, human, in vivo, Beta half-life); 4.3 ± 0.6 h in data set [3] (male, human, in vivo, Alpha half-life); 240 h in data set [3] (male, human, in vivo, Beta half-life). The “maximum inter-individual variability of clearance (CL)” value in [3] (both, human, in vivo) came out at 182%. The “inter-individual variability of clearance (CL)” value is reported as 2% in [3] (female, human, in vivo) and 13% in data set [3] (male, human, in vivo). Besides, the “area under the terminal phase as share of the total area-under-curve” value in data set [3] (human, in vivo) is on record as about 90%. Also, the concentration at 48 h is over 10 µM in data set [3] (human, in vivo); 13.9 µM in data set [6] (Patient 1, cycle 1, BSA 1.45, dose 263 mg, read-out: Concentration, 48 hours); 10.2 to 11.5 µM in data set [6] (Patient 1, cycles 3 to 6, dose 151-156 mg, read-out: Concentration, 48 hours); 15.5 µM in data set [6] (Patient 2, cycle 1, BSA 1.67, dose 210 mg, read-out: Concentration, 48 hours); 12.9 to 15.6 µM in data set [6] (Patient 2, cycles 2 to 6, dose 227-257 mg, read-out: Concentration, 48 hours); 19.4 µM in data set [6] (Patient 3, cycle 1, BSA 1.83, dose 230 mg, read-out: Concentration, 48 hours). Further, the concentration at 48 h in data set [6] (all 13 treatments in three patients, PBPK-calculated dose, two-thirds / one-third split, read-out: 48-hour plasma concentrations) is over 10 µM. Moreover, the “maximum inter-subject variability in the steady state volume of distribution (Vss)” value in data set [3] (human, in vivo) is on record as 153%. For the same molecule, the “Concentration, Post-paclitaxel” value in data set [6] (setting [14]) is 33.95 µM; in [6] (setting [15]), 21.5 to 26.3 µM; in data set [6] (setting [16]), 40.39 µM; in data set [6] (setting [17]), 26.7 to 28.5 µM; in data set [6] (setting [18]), 36.02 µM. Besides, the “Concentration, Pre-dose” value is 0.00 µM in [6] (setting [14]); 1.87 to 3.19 µM in data set [6] (setting [15]); 0.00 µM in [6] (setting [16]); 2.65 to 3.81 µM in [6] (setting [17]); 0.00 µM in data set [6] (setting [18]). Besides, the “maximum concentrations after administration of paclitaxel” value in data set [6] (all 13 treatments in three patients, PBPK-calculated dose, two-thirds / one-third split) is given as “below 50 μM”. Further, the Alpha half-life in data set [7] (setting [19]) is 5.5 ± 1.7 h. Moreover, the Beta half-life in [7] (setting [19]) was 98.4 ± 52.8 h. For the same molecule, the Gamma half-life in [7] (setting [19]) is 1870 ± 1100 h. Moreover, the Total body clearance in [7] (setting [19]) is 0.01 ± 0.004 l/hr/m^2. Moreover, the “Cumulative AUC” value in data set [7] (high dose suramin, total dose >2,000 mg per m^2 per 3-week interval, calculated as 200 μg/ml x 3 weeks from the reference) is recorded as 101* mg-hr/ml. Moreover, the “effect on cell cycle” value in data set [8] is on record as “induce cell cycle arrest”. Also, in [9], the “concentrations of suramin that overcome FGF-mediated resistance to chemotherapy” value is recorded as “less than 50 μM”. The “k^typ (elimination rate constant), Estimate” value in data set [10] (Female) is 0.0022 h⁻¹; in data set [10] (Male), 0.0026 h⁻¹. Also, in data set [10] (setting [20]), the “θ1 (effect of BSA on CL^typ), Estimate” value is 26.2 mL/h * m^2. Besides, the “θ5 (effect of BSA^2 on V^typ), Estimate” value in data set [10] (setting [20]) was 5.13 L/m^4.
For the molecule `N.N.O=C([O-])C1(C(=O)[O-])CCC1.[Pt+2]` [carboplatin], the “areas-under-plasma concentration-time curves attained in the first 48 hours after drug administration” value in data set [3] (first six patients) is reported as over 99%.

Source of the values: US8580857B2 (priority 2001, dated 2013).
